# Results: ChEMBL document CHEMBL3507680, “University of Dundee, Gates Library screen for HepG2 cell viability”
# Test: Human HepG2 cell viability assay in 384 well format
# Format: toxicity, cell-based
# Set-up: dose 125 nL, time 70.5 hour; cytotoxicity at 70.5 h: concentration not given beside the values
# Conditions: HepG2 cells, read-out: Inhibition
row,SMILES,cytotoxicity at 70.5 h
1,CC(C)(NC(=O)Nc1cnn(CC2CCCO2)c1)c1nccs1 (stereo unspecified),-6.03%
2,Cc1cccc(CN2C[C@H]3C[C@H](C(=O)NCc4cccnc4)[C@@H](C2)O3)c1,25%
3,CC(=O)N1[C@H](Cn2cncn2)C[C@@H]2CN(C(=O)c3ccoc3)CC[C@@H]21,-6.21%
4,COCCN1C[C@H]2[C@@H](C1)N(Cc1cnn(C)c1)CC[C@H]2OC,-11.3%
5,O=C1CC2(CCN(C(=O)C3CCCCC3)C2)Nc2ccccc2N1 (stereo unspecified),-9.46%
6,O=C1CCC(c2nc(C3CCN(C(=O)C4CC4)CC3)no2)N1 (stereo unspecified),-4.42%
7,c1ccc(-c2cc(CN3CCC(c4ccn[nH]4)CC3)on2)cc1,-7.56%
8,COCCn1c2c(ccc1=O)CCN(C(=O)Cc1cccs1)CC2,-5.4%
9,Cc1nnc(N2C[C@@H](OCC3CCCC3)[C@H]3OCCC[C@H]32)s1,-5.21%
10,CCN(C)c1ncnc2c1CCN(Cc1nccs1)CC2,6.96%
11,Cc1cc(CN(C)C(=O)c2cccc(CCC(C)(C)O)c2)no1,-7.67%
12,Cc1cc(CNc2cc(Cl)ccc2OCCS(C)(=O)=O)no1,13.3%
13,C=C(C)COc1cccc(CNC(CC)c2ccnn2C)c1 (stereo unspecified),1.1%
14,CC(c1ncc(-c2ccccc2)o1)N1CCN(C(=O)C(C)(C)C)CC1 (stereo unspecified),-25.9%
15,O=C1CO[C@H]2CN(Cc3cccc(F)c3F)C[C@@H]2N1C1CCOCC1,41.9%
16,CNC(=O)N1CC[C@@H]2CN(Cc3ccccc3)S(=O)(=O)[C@@H]2CC1,-6.18%
17,Cc1csc(N2CCN(C(=O)CCNc3ncccn3)CC2)n1,-11.3%
18,Cc1cc(NCCNc2ccc(C#N)cn2)nc(C)n1,-6.84%
19,Cc1ccccc1CN(CC(=O)O)C(=O)COCC1CC1,0.683%
20,CCS(=O)(=O)N[C@H]1CN(Cc2noc(COC)n2)C[C@@H]1C1CC1,-8.57%
21,Cc1ccc(-c2cc(CNc3ncnc4c3CCNCC4)no2)cc1,1.89%
22,COc1ccc(Br)c(C(=O)N2CCCC(c3nc(C)no3)C2)c1 (stereo unspecified),-9.43%
23,CC1CCCN(c2ccccc2OCC(=O)NC2CCOCC2)C1 (stereo unspecified),28.3%

row,SMILES,cytotoxicity at 70.5 h
1,Fc1cccc2c1CCC2NCc1cnc(N2CCOCC2)nc1 (stereo unspecified),-1.25%
2,COc1ccc(CC(=O)NC2CCN(CC(F)F)CC2)cc1OC,0.793%
3,Cc1ccc2[nH]c(C3CCN(CC(N)=O)CC3)nc2c1,9.74%
4,CC(=O)NC1CCN(c2ccc(C#N)cc2C(F)(F)F)CC1,-1.95%
5,COCCOc1ccccc1CNCC1COC2(CCCC2)O1 (stereo unspecified),0.252%
6,CCOCC1CN(Cc2ccoc2)Cc2cn(CC3CC3)nc21 (stereo unspecified),-19.8%
7,Cc1cc(N2CCC(c3nnc(CN(C)C)n3C3CC3)CC2)ccn1,18.3%
8,CCS(=O)(=O)N1C[C@@H](OCc2cccnc2)[C@H]2OCCC[C@H]21,6.52%
9,CSCC1CCN(C(=O)Cn2ncc(N3CCCCC3)cc2=O)CC1,-16.3%
10,COc1c(C)cnc(CN(C)C2CCN(C3CCOCC3)CC2)c1C,-0.744%
11,CCNc1cc2c(nn1)CCN(C(=O)C1CCc3ccccc31)C2 (stereo unspecified),-0.738%
12,OCCCN1CCCC1c1cccc(Br)c1 (stereo unspecified),-4.27%
13,Cc1ccccc1N1CCCN(C(=O)c2nn(C)cc2Cl)CC1,27.7%
14,CC(O)(CNS(=O)(=O)Cc1ccon1)c1ccsc1 (stereo unspecified),0.988%
15,CCCn1nc2c(cc1=O)CN(c1ncnc3sccc13)CC2,-10.8%
16,O=C(CN1CC(c2ccccc2)CC1=O)NCc1cc2n(n1)CCNC2 (stereo unspecified),-8.02%
17,CCCS(=O)(=O)N1CCC(Nc2c(F)cc(C#N)cc2F)CC1,-2.66%
18,Cc1nn(C2CCS(=O)(=O)C2)c(O)c1Cc1ccccc1Cl (stereo unspecified),-18.5%
19,Cc1ncc(CN2CCOC(CN(C)c3cccnn3)C2)s1 (stereo unspecified),-9.59%
20,O=c1[nH]cc(Nc2ccc(Cl)cc2)c(=O)[nH]1,29.9%
21,CC1(C(=O)N2CCOCC2)CN(Cc2ccccc2F)CCO1 (stereo unspecified),-11.3%
22,O=C(CC1CC1)N1CCCn2nnc(CNc3ncccn3)c2C1,-1.8%
23,O=C(NC1CC1)N1CCC2(CC1)CC(N1CCOCC1)c1ccccc12 (stereo unspecified),-10.8%

row,SMILES,cytotoxicity at 70.5 h
1,Cc1ccc(NC(=O)Nc2c(O)oc3ccccc3c2=O)cc1C,-5.07%
2,CN(C)C(=O)[C@H]1C[C@@H]2CN(CCc3ccccc3)C[C@H]1O2,-6.59%
3,CCn1c(C)nnc1CN(C)C1CCN(Cc2nccn2C)C1 (stereo unspecified),3.01%
4,Cc1oncc1C(=O)N1CC[C@H]2[C@@H]1CCC(=O)N2CC1CC1,2.95%
5,COc1cccc(N2CC3(CCN(C(=O)NC(C)C)C3)CC2=O)c1 (stereo unspecified),-7.02%
6,CCCOc1cc(C)c2c(c1C)C[C@H]([C@H](C)C(=O)O)CC2,-3.42%
7,COc1cccc(S(=O)(=O)N2C[C@@H](O)[C@H](N(C)C)C2)c1,-15.9%
8,O=C(CN1CCC[C@H]1C(=O)O)NCCOc1cccc(Cl)c1,-1.34%
9,C[C@@H](CO)Nc1cc(-c2cn[nH]c2)ncn1,-0.96%
10,OC[C@H]1CN(Cc2c(Cl)cncc2Cl)C[C@H]1CN1CCOCC1,-10.9%
11,CC(C)NC(=O)C1CCc2nnc(CNC(=O)c3cccnc3)n21 (stereo unspecified),-2%
12,Cn1cnc(S(=O)(=O)NCC2(O)CCc3ccccc32)c1 (stereo unspecified),9.61%
13,Cn1ccnc1C(=O)N1CCC2(CCN2c2ncccn2)C1 (stereo unspecified),0.472%
14,CCN(CC)Cc1ccc(C(=O)NC2CCc3cc(Cl)ccc32)o1 (stereo unspecified),21.2%
15,CCOc1nn(CC)cc1-c1nnc(SCc2cccnc2)n1CC,-7.15%
16,Cc1cc(NCCCNc2cccnc2)n2nc(C)c(C)c2n1,-10.7%
17,Cc1csc(CN2CC[C@H]3C[C@H](c4ccncn4)O[C@@H]3C2)n1,-2.15%
18,COC(=O)c1cc(CN2CCC(c3noc(C)n3)CC2)c(C)s1,2.05%
19,N#Cc1cccc(CS(=O)(=O)NC(Cc2ccccc2)C(N)=O)c1 (stereo unspecified),-13.1%
20,CS(=O)(=O)NCC1CCCN(c2ccc(C#N)cn2)C1 (stereo unspecified),-8.07%
21,Cc1nc(CN2CCN(CC3CCOC3)Cc3cccnc32)cs1 (stereo unspecified),-8.4%
22,CC(=O)N1CCN([C@@H]2CC[C@@H](NC(=O)c3cc(C)cs3)[C@H]2O)CC1,-4.78%
23,Cc1ccc(-c2nc(CN3CCn4c(C)nnc4C3)cs2)o1,-7.11%

row,SMILES,cytotoxicity at 70.5 h
1,CCNc1ccnc(NC2CCN(S(C)(=O)=O)CC2)n1,-14.6%
2,COc1cc(C)nc(N2CCN(C(=O)CCn3cc(C)cn3)CC2)n1,-0.584%
3,CO[C@@H]1CCN(c2nnc(C)s2)C[C@@H]1Cc1ccccc1,-2.42%
4,CN(Cc1cccs1)C(=O)c1ccc(=O)n(C)c1,-5.37%
5,CCNC(=O)N1C[C@@H]2OCC(=O)N(Cc3cccnc3)[C@@H]2C1,-1.41%
6,CC(c1ccc2c(c1)OCCO2)N(C)C(=O)c1ccnnc1 (stereo unspecified),-5.69%
7,CCc1ccsc1C(=O)N1CCN(C(=O)c2ccc(C)o2)CC1,-5.92%
8,O=C(C1CCCC1)N1CCOc2cccc(F)c21,-7.17%
9,Cn1nc(C2CCCN(Cc3cccc(F)c3)C2)c2nccnc21 (stereo unspecified),-4.33%
10,CCC[C@H]1CN(CCS(C)(=O)=O)C[C@@H]1NC(=O)c1cc(CC)on1,-2.15%
11,c1nc(CCC2CCCCN2)cc(N2CCCC2)n1 (stereo unspecified),1.23%
12,Cc1cc(C(=O)NCCC2CCN(C)CC2)ccc1N(C)S(C)(=O)=O,-10.7%
13,CCOc1nn(CC)cc1-c1nnc(SCc2cccnc2)n1C,-5.3%
14,CN(C)C(=O)COC1COC2(CCN(CC3CCOCC3)CC2)C1 (stereo unspecified),-4.78%
15,CN(CCn1nc2ccccn2c1=O)CC(=O)N(C)C1CCCCC1,2.32%
16,CN(Cc1nc(-c2ccccc2)no1)C(=O)CNS(C)(=O)=O,-8.66%
17,CCN(Cc1nc(COC)no1)Cc1cccnc1NC(=O)C(C)(C)C,-9.55%
18,CCN1CC2(CC1=O)CN(Cc1cnn(C)c1)CCN(C(=O)N(C)C)C2 (stereo unspecified),9.62%
19,COc1ccc(-c2cc(C3CCCNC3)ccn2)cc1 (stereo unspecified),-12.4%
20,Cc1cc(C(=O)NCCC(C)C)ccc1NS(C)(=O)=O,-11%
21,Cc1ccccc1C(C)N(C)Cc1nc2c(cnn2C)c(=O)[nH]1 (stereo unspecified),-6.49%
22,N#Cc1cn(CCCN2CCc3ccccc3C2)c(=O)[nH]c1=O,-5.98%
23,Cc1c[nH]c(CN(C)C(=O)CCn2cnc3ccccc32)n1,-1.23%

row,SMILES,cytotoxicity at 70.5 h
1,Cc1ccsc1CNC1CCCN(Cc2noc(C3CC3)n2)C1 (stereo unspecified),-2.45%
2,CCSc1ncc(-c2cc(C3CCC3)nc(N)c2C#N)cn1,9.11%
3,Cc1cc(NCc2noc(C(C)C)n2)nc(-c2ccccc2)n1,12.1%
4,Cc1ccc(-c2nnc(CNC(=O)c3cccnc3)o2)cn1,-16.3%
5,CC(NC(=O)COc1ccccc1I)C1CC1 (stereo unspecified),-1.97%
6,COCC(=O)N1C[C@H]2CNC[C@@]2(C(=O)NCc2snnc2C)C1,-6.27%
7,CCCNC(=O)CCNC1CSCCc2ccccc21 (stereo unspecified),-2.78%
8,Cc1ccc(C(=O)N2C[C@@H]3OCCN(CCN4CCCC4)[C@@H]3C2)cn1,-4.09%
9,Cc1ccc(F)cc1C(=O)N1C[C@@H](CN2CCOCC2)[C@@H](CO)C1,-6.59%
10,Cc1ncsc1C(=O)NC1CCN(CC(=O)NCc2ccccc2)CC1,2.21%
11,COC(=O)c1cccn1C1CCN(C(=O)c2ccc(C)[nH]c2=O)CC1,-5.32%
12,Cc1cc(CN(C)C(=O)CC(C)C)no1,-2.9%
13,Cc1ccc(CNC(=O)c2cc(C)n(C)n2)o1,-8.67%
14,Cc1ccc(O)c(CNC2CCc3nc(C(C)C)nn3C2)n1 (stereo unspecified),-11.7%
15,O=C(C1CCCO1)N1CCC2(CC1)COCCN(Cc1cccnc1)C2 (stereo unspecified),-2.16%
16,Fc1ccc(CN2CCCn3cnc(COCC4CC4)c3C2)cc1,2.87%
17,O=C(c1n[nH]cc1Cl)N1CCCC(n2nnc3cc(F)ccc32)C1 (stereo unspecified),-5.16%
18,COc1ccc(NC(=O)N2CCCC(CO)C2)c(C)c1 (stereo unspecified),-6.09%
19,CCN1C[C@@H]2[C@@H](OC)CCN(S(=O)(=O)c3cccnc3)[C@@H]2C1,-10.5%
